Results from patent publication US6407141B1 (priority 1995, dated 2002).

Tests used:
[1] = test system: fever, burning and irritation when urinating, back pain; test: vitamin B6 pills for fever, urinary irritation, back pain attributed to oxalic acid; format: in vivo, human
Method: Then Turk's owner moved to Arkansas. His […], who is married and living nearby, worked at a local hospital. One day they began running a high fever in the range of 104° -106°, went home, and went straight to bed. The fever fell, and the next couple of days they returned to work only to have the fever return after a couple of hours. They went home and the cycle repeated. They mentioned this to a doctor in the emergency room and a series of tests were ordered looking for a virus, an infection, even a tubular conception. Turk's owner became involved, because after listening to long, sometimes whispered conversations between their spouse and stepdaughter, they asked what the trouble was. Their spouse explained what had happened and that the doctor was looking for some type of urinary tract or vaginal infection, but there were no positive cultures. […] Their stepdaughter was eating primarily salad bar meals loaded with oxalic acid.

[2] = test system: low red blood cell count; test: vitamin B6 pills in woman with low red blood cell count; format: in vivo, human; conditions: 50 mg pills, one a day first week then every other day; three weeks
Description: After retirement, Turk's owner was planning to move and some friends stopped by to visit. One evening while having cocktails with the friends, they began talking about health and age, etc. […] Turk's owner's research had paid off. They gave their organic gardening magazine to the person and urged them to read the article by Judith Benn Hurley. They explained to them that the reason their red cell count was low was because of their diet. […] Their diet contained items high in oxalic acid, like spinach, their favorite salad.

[3] = case study, dog at a pound given oxalic acid dihydrate gel cap for seven days; format: in vivo; conditions: one gram in a gel cap one hour prior to meal time for seven days
[4] = test system: bone cancer (sarcoma) of the left hind leg; test: case study, Doberman pincher with bone cancer, oxalic acid enhanced dogfood; format: in vivo, dog
Description: In accordance with another case study, a Doberman […] diagnosed with bone cancer (sarcoma) of the left hind leg. The dog had previously been put on medication for arthritis because it would not use or lower its left hind leg. […] A few days later, the dog began taking steps on the left hind leg with a slight limp.

[5] = test system: melanoma (mouth tumor); test: case study, Irish Setter with melanoma, oxalic acid diet and food additive; format: in vivo, canine; conditions: eleven month period; diet, then oxalic acid dihydrate 1 gram down to 20 mg per day in food
[6] = canine urine oxalate count; conditions: about 1 gram per day intake; 25 Kilogram canine
[7] = test system: tarter or plaque, gums and mouth tissue; test: daily use of dental hygiene composition by the inventor; format: in vivo, human; conditions: 150 mg diluted in 300 ml of distilled water
Description: The inventor continued to search for other uses of the “miracle bullet” oxalic acid or oxalate compositions for treating the body and immune system. […] There was no more occasional bleeding of the gums during daily brushing, and the surface of the tongue appeared to be more smooth with an even coloring across the surface.

[8] = test system: infected torn toenail; test: soaking of poodle's infected paw in oxalic acid solution; format: in vivo, dog; conditions: 150 mg in 300 ml of distilled water, after two soakings; antibiotic also given
Description: On another occasion, the inventor's pet poodle had torn a toenail which became infected. The infection was in an advanced stage which was extremely sensitive and the poodle would not use the leg while walking. The poodle was examined by the veterinarian, received an injection of a antibiotic, and oral capsules were to be given.

[9] = test system: viral pneumonia; test: mouthwash procedure in viral pneumonia; format: in vivo, human; conditions: 150 mg in 300 ml of distilled water, rinse and gargle three times daily, Friday to Sunday; antibiotics also given
Method: Also, their spouse was diagnosed with viral pneumonia by X-ray examination. They were given antibiotics to ward off infections because of a weakened immune system. […] They started the recommended procedure of approximately 2 teaspoons of wash, holding in mouth for 2 minutes then gargle, spit out wash, then rinsing mouth at least twice with warm tap water. The procedure was repeated first thing in the morning immediately after rising and before anything else was put in mouth. It was done mid-day with nothing in mouth one hour prior to wash. At night, the procedure was repeated as the last item before retiring.

[10] = test system: cold, flu virus, sore throat; test: mouth rinse and gargle case studies, cold, flu, sore throat; format: in vivo, human; conditions: rinse two minutes and gargle three times a day for four days; two cases
Description: On another occasion while visiting the veterinary clinic, the inventor noticed the receptionist had symptoms of a cold, and upon questioning the receptionist learned […] was treating a cold which was into the start of the second week. […] The inventor advised the receptionist that, each morning immediately upon rising, and prior to any other substance being put into the mouth, they should take approximately one teaspoon of the solution in their mouth, holding it for a minimum of two minutes, swishing the solution gently around the mouth, then discarding the solution and rinsing the mouth with warm water two or three times. The procedure began Friday night and the following Monday morning the cold was gone.
The dilute solution was the bench mark solution.
On still another occasion a pharmacist, consultant to the inventor, awoke at 2:30 a.m. with a very sore throat, unable to swallow without severe pain, remembered the inventor's description of their own experience, mixed two teaspoons of the bench mark mixture and two teaspoons of warm water, held the mixture in the mouth for two minutes and gargled well. After a 15-minute wait, repeated the procedure and then retired. Upon arising at 6:30 a.m., repeated the procedure one time before leaving for the pharmacy.

[11] = FIG. 1; cited from earlier work
[12] = test system: leukemia with tumors in lymph nodes; test: case study, leukemia with tumors in lymph nodes; format: in vivo, human; conditions: after 5-7 days; about 1 to 1 ½ g/day in dilute solution, almost no blockers
Description: An adult was terminally ill with leukemia with tumors in their lymph nodes and they had stopped chemotherapy treatment. […] It was hard for them to swallow so they were on a liquid diet because of the swelling of the lymph nodes in and around their mouth and throat.

[13] = man; cited from earlier work
[14] = test system: gingivitis, tarter and plaque; test: daily brushing of dog's teeth with oxalic acid solution; format: in vivo; conditions: 150 mg in 300 ml of distilled water, one week
Description: At the completion of the exam, rather than treat the gingivitis with an injection of antibacterial medication followed by oral medication, it was agreed the inventor would commence daily brushing of the dog's teeth. […] The inventor began a daily brushing of the dog's teeth paying particular attention to the upper gums. The brushing was done first thing in the morning before the dog had anything to eat or drink. After the fourth day of brushing, the inventor/owner of the dog, noticed the redness of the gingivitis was disappearing and after one week returned the dog to the veterinarian for a follow-up exam. […] The veterinarian recommended cleaning one side of the dogs upper teeth and continuing with the daily brushing routine.

[15] = after dose reduced to about 1 gram, then about 500 mg per day

## Cc1ncc(CO)c(CO)c1O.Cl [vitamin B6, pyridoxine hydrochloride]
[1]; after the third day
  symptoms: all symptoms were gone
[1]; other people
  back pain without muscle or spine problems: found relief
[1]; two pills, one after twelve hours, then one a day, in two days
  fever: fever was gone
[2]
  outcome, surgery delayed by low red cell count: doctor had just scheduled their operation

## O=C(O)C(=O)O [oxalic acid dihydrate]
[3]
  adverse effects: no adverse effects
[4]; after about 30 days on the oxalic acid diet
  pain and walking: no pain during physical exam and was walking normally
[4]; [15]
  X-ray, area affected by the sarcoma: decrease or reduction in the size of the area affected by the sarcoma
  X-ray, bone material: increase in bone material in the area of the sarcoma
[4]; within 4 days, about 2 grams added to dry dogfood
  use of left hind leg: lowered its left hind leg and used it frequently
[5]
  mouth tumor size: reduced in size

## O=C(O)C(=O)O [oxalic acid, ethanedioic acid]
[6]
  level of oxalate in the urine: ~22 µg/mL
[7]
  condition of gums and mouth tissue: remarkable improvement
  tarter or plaque in the mouth: removal of and prevention of any build up of tarter or plaque
[8]
  infection of the paw: improved dramatically
[9]
  effects of the viral pneumonia: nearly complete relief
[10]
  soreness of throat and nose, flu virus: completely removes all soreness of throat and nose
[11]
  stability of solutions to radiation: decomposed by radiation
[12]
  tumors in lymph nodes: shrinkage of tumors in the lymph nodes
[13]
  death after ingestion, as early as: 3 min
  death after ingestion, as late as: 14 days
[14]
  gingivitis at follow-up exam: no more evidence of gingivitis
  tarter and plaque at follow-up exam: no tarter but moderate plaque remained
